Source: patent US12378195B2, “Aminated psilocybin derivatives and methods of using” (Enveric Biosciences Canada Inc., priority 2021, dated 2025)

Assays:
5-HT1A receptor = molecular target: T1, 5-HT1A receptor (Homo sapiens, UniProt P08908); experiment: cAMP-Glo luminescence assay in +5-HT1A cells (CHO-K1/5-HT1A/Gα15) with forskolin; type: cell-based; settings: +5HT1A cell cultures, fixed (4 μM) forskolin, n=3; for luminescence (cAMP) trend with decreasing ligand dosage, 5-HT1A modulation: FIGS. 11J, 11K; for % cAMP levels with decreasing ligand dosage, 5-HT1A activity: FIGS. 11L, 11M
T1 construct: host or cells: CHO-K1 (stably expressing 5-HT1A and Gα15)
T1 sequence (P08908 1-422): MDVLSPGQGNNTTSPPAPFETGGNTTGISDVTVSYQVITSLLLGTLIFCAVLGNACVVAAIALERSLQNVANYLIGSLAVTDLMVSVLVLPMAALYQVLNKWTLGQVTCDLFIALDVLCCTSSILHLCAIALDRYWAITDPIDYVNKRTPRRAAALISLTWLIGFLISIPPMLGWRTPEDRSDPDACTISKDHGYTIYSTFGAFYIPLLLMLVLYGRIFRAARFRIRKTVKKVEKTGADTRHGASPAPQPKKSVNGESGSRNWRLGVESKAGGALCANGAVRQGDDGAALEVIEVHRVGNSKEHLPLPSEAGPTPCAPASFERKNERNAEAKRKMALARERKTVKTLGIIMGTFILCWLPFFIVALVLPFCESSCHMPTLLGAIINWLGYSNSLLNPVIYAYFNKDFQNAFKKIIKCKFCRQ
Source text: CHO-K1/Gα15 (GenScript, M00257) (−5-HT1A) and CHO-K1/5-HT1A/Gα15 (GenScript, M00330) (+5-HT1A) cells lines were used. Briefly, CHO-K1/Gα15 is a control cell line that constitutively expresses Gα15 which is a promiscuous Gq protein. This control cell line lacks any transgene encoding 5-HT1A receptors, but still responds to forskolin; thus, cAMP response to forskolin should be the same regardless of whether or not 5-HT1A agonists are present. Conversely, CHO-K1/5-HT1A/Gα15 cells stably express 5-HT1A receptor in the CHO-K1 host background. […] In +5-HT1A cells, Gα15 may be recruited in place of Gαi/o, which could theoretically dampen cAMP response (Rojas and Fiedler 2016, Front Cell Neurosci 10: 272). […] In contrast, tryptophan is not known to activate, or modulate in any way, 5-HT1A receptors, and was thus used as a negative control. Cells were maintained in complete growth media as recommended by supplier (GenScript) which is constituted as follows: Ham's F12 Nutrient mix (HAM's F12, GIBCO #11765-047) with 10% fetal bovine serum (FBS) (Thermo Scientific #12483020), 200 μg/ml zeocin (Thermo Scientific #R25005) and/or 100 μg/ml hygromycin (Thermo Scientific #10687010). The cells were cultured in a humidified incubator with 37° C. and 5% CO2. Cells maintenance was carried out as recommended by the cell supplier. Briefly, vials with cells were removed from the liquid nitrogen and thawed quickly in 37° C. water bath. Just before the cells were completely thawed the vial's outside was decontaminated by 70% ethanol spray. The cell suspension was then retrieved from the vial and added to warm (37° C.) complete growth media, and centrifuged at 1,000 rpm for 5 minutes. The supernatant was discarded, and the cell pellet was then resuspended in another 10 ml of complete growth media, and added to the 10 cm cell culture dish (Greiner Bio-One #664160). The media was changed every third day until the cells were about 90% confluent. The ˜90% confluent cells were then split 10:1 for maintenance or used for experiment.
(§1) As 5-HT1A activation inhibits cAMP formation, the ability of test molecules to modulate 5-HT1A response was measured via changes in the levels of cAMP produced due to application of 4 μM forskolin. The change in intracellular cAMP levels due to the treatment of novel molecules was measured using cAMP-Glo Assay kit (Promega #V1501). […] Reduced ATP caused reduced conversion of luciferin to oxyluciferin, conferring diminished luminescence as the result of 5-HT1A activation. Conversely, enhanced luminescence was expected in cases where 5-HT1A receptor modulation—imparted by a test molecule—caused downstream increases in ATP, thus imparting enhanced conversion of luciferin to oxyluciferin.

[1] = tested on: CHO-K1/Gα15 (−5-HT1A) cells; experiment: cAMP-Glo assay in control −5-HT1A cells (CHO-K1/Gα15) with forskolin; type: cell-based; settings: −5HT1A cell cultures; fixed (4 μM) forskolin; n=3; FIGS. 11L, 11M
Source text: CHO-K1/Gα15 (GenScript, M00257) (−5-HT1A) and CHO-K1/5-HT1A/Gα15 (GenScript, M00330) (+5-HT1A) cells lines were used. Briefly, CHO-K1/Gα15 is a control cell line that constitutively expresses Gα15 which is a promiscuous Gq protein. This control cell line lacks any transgene encoding 5-HT1A receptors, but still responds to forskolin; thus, cAMP response to forskolin should be the same regardless of whether or not 5-HT1A agonists are present. Conversely, CHO-K1/5-HT1A/Gα15 cells stably express 5-HT1A receptor in the CHO-K1 host background. […] In +5-HT1A cells, Gα15 may be recruited in place of Gαi/o, which could theoretically dampen cAMP response (Rojas and Fiedler 2016, Front Cell Neurosci 10: 272). […]
as §1

5-HT2A receptor = molecular target: T2, 5-HT2A receptor (Homo sapiens, UniProt P28223); experiment: [3H]ketanserin competition binding assay (Scintillation Proximity Assay); settings: fixed (1 nM) [3H]ketanserin; membranes containing 5-HT2A; FIG. 11E
T2 construct: purchased PerkinElmer ES-313-M400UA
T2 sequence (P28223 whole entry): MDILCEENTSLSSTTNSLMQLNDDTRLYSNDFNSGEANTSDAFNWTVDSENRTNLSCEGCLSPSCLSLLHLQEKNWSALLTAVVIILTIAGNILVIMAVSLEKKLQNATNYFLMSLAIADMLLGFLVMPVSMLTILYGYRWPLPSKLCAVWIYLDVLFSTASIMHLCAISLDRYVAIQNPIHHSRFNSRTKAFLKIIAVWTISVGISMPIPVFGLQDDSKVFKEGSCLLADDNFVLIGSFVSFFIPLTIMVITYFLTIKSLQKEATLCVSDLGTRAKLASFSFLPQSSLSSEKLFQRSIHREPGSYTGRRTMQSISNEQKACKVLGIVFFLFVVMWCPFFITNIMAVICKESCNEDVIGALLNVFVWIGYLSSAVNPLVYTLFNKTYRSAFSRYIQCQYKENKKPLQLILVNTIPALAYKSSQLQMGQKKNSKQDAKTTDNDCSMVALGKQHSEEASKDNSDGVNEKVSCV
Source text: Evaluation of drug binding is an essential step to characterization of all drug-target interactions (Fang 2012, Exp Opin Drug Discov 7:969). The binding affinity of a drug to a target is traditionally viewed as an acceptable surrogate of its in vivo efficacy (Núnez et al., 2012, Drug Disc Today 17: 10). Competition assays, also called displacement or modulation binding assays, are a common approach to measure activity of a ligand at a target receptor (Flanagan 2016, Methods Cell Biol 132: 191). In these assays, standard radioligands acting either as agonists or antagonists are ascribed to specific receptors. […] After incubation, the samples were read on a MicroBeta 2 Microplate Counter (Perkin Elmer). […] Equilibrium binding constants for ketanserin (Kd) were determined from saturation binding curves using the ‘one-site saturation binding analysis’ method of GraphPad PRISM software (Version 9.2.0). […] Ki values were calculated from the competition displacement data using the competitive binding analysis from GraphPad PRISM software. […] Specific binding in counts per minute (cpm) was calculated by subtracting non-specific binding from total binding. Specific binding (pmol/mg) was calculated from pmol of [^3H]ketanserin bound per mg of protein in the assay. The Kd was calculated by fitting the data with the one-site binding model of PRISM software (version 9.2.0).

Compound	luminescence (cAMP) trend with decreasing ligand dosage, 5-HT1A modulation (5-HT1A receptor)	trend of increasing % cAMP levels with decreasing ligand dosage [1]	% cAMP levels with decreasing ligand dosage, 5-HT1A activity (5-HT1A receptor)	competition binding curve at the 5-HT2A receptor (5-HT2A receptor)
CN(C)CCc1c[nH]c2ccccc12 [DMT]	5-HT1A activity			
COc1c(N)ccc2[nH]cc(CCN)c12 [compound (IX)]		not observed	5-HT1A binding activity	
CN(C)CCc1c[nH]c2cccc(O)c12 [psilocin]				binding
NCCc1c[nH]c2ccc(O)cc12 [serotonin]		not observed	5-HT1A binding activity	
N[C@@H](Cc1c[nH]c2ccccc12)C(=O)O [tryptophan]	lack of 5-HT1A modulation			no binding
